Data on 41 compounds can be found in patent US4556660A, “N-(Bicyclic heterocyclyl)-4-piperidinamines” (Janssen Pharmaceutica N.V., priority 1983, dated 1985).

The test system of test [1] is compound 48/80-induced lethality. In words: Protection of rats from compound 48/80-induced lethality. The test is classed as in vivo, Male rats of an inbred Wistar strain. Particulars: for ED50: Rattus norvegicus, 4 h, read-out: compound 48/80 lethality test rats-ED50. The method, then:
Protection of rats from compound 48/80-induced lethality
The protection from compound 48/80-induced lethal circulatory collapse appears to be a simple way of evaluating quantitatively the antihistaminic activity of test compounds. Male rats of an inbred Wistar strain, weighing 240-260 g were used in the experiment. After overnight starvation the rats were transferred to conditioned laboratories (temp.=21±1° C., relative humidity-65±5%).
The rats were treated subcutaneously or orally with a test compound or with the solvent (NaCl solution, 0.9%). […] Survival after 4 hours is therefore considered to be a safe criterion of a protective effect of drug administration.
The ED50 -values of the compounds of formula (I) and the intermediates of formula (XVIII) are listed in the first column of table 1 and table 2. Said ED50 -values are the values in mg/kg body weight at which the tested compounds protect 50% of the tested animals against compound 48/80-induced lethality.

For test [2], the system named is serotonin; compound 48/80-induced gastric lesions. In words: Antagonistic activity on the effects of serotonin in the gastric lesion test (lesions induced by compound 48/80). The test is classed as in vivo, Male rats of a Wistar inbred strain. The method, then:
Antagonistic activity on the effects of serotonin in the gastric lesion test
Male rats of a Wistar inbred strain, weighing 220-250 g, were starved overnight, water being available ad libitum. The test compounds were administered orally as a solution or as a suspension in aqueous medium. A control rat and a "blank" rat received the test compound. One hour later 5-[4-(diphenylmethyl)-1-piperazinylmethyl]-1-methyl-1H-benzimidazole-2-methanol was administered subcutaneously to all rats at the dose of 2.5 mg/kg.
Four hours after the intravenous injection of compound 48/80, the rats were decapitated and the stomachs were removed. Subsequently the stomachs were inspected for distension and contents (blood, fluid, food) and thoroughly rinsed. The macroscopic lesions were scored from 0 to +++, 0 corresponding to complete absence of visible lesions and the highest score corresponding to reddish rough patches covering more than half the glandular area.

The mark [3] stands for this setting: Rattus norvegicus, po; read-out: gastric lesion test ED50.

Read-outs that look alike come from different tables or passages of the source.

Turning to `COc1ccc2c(c1)nc(NC1CCN(CCNc3ncccn3)CC1)n2Cc1ccc(F)cc1`, the ED50 stood at 1.25 mg/kg in test [1] and 2.5 mg/kg in test [2] (setting [3]).
Taken in the same sequence, the figures for `Oc1ccc2c(c1)nc(NC1CCN(CCNc3ncccn3)CC1)n2Cc1ccc(F)cc1` were 0.16 mg/kg and 2.5 mg/kg.
For `COc1ccc2nc(NC3CCN(CCNc4ncccn4)CC3)n(Cc3ccc(F)cc3)c2c1` the same measures were 1.25 mg/kg and 2.5 mg/kg.
Taken in the same sequence, the figures for `Fc1ccc(Cn2c(NC3CCN(CCNc4ncnc5ccccc45)CC3)nc3ccccc32)cc1` were 0.08 mg/kg and 2.5 mg/kg.
Turning to “3[(4-fluorophenyl)methyl]-N-[1-[2-[(2-pyridinyl)amino]ethyl]-4-piperidinyl]-3H-imidazo[4,5-b]pyridin-2-amine [Compound 23]”, the “compound 48/80 lethality test rats-ED50” value in test [1] (rats, subcutaneous or oral, 1 h before compound 48/80 0.5 mg/kg i.v., 50% protected, survival after 4 h) is reported as 0.04 mg/kg body weight. The “gastric lesion test ED50” value in test [2] (rats, oral, 2 h before compound 48/80 1 mg/kg i.v.; stomach distension and glandular lesions completely absent in 50% of rats) is reported as 0.08 mg/kg body weight.
As for `OCCN1CCC(Nc2nc3cnccc3n2Cc2ccc(F)cc2)CC1` [CH2 CH2 OH 4-FC6 H4 CH2 -- 3 base], in test [1], the ED50 is 0.31 mg/kg.
Turning to `OCCN1CCC(Nc2nc3ncccc3n2Cc2ccc(F)cc2)CC1` [CH2 CH2 OH 4-FC6 H4 CH2 -- 4 base], the ED50 stood at 0.01 mg/kg in test [1] and 0.63 mg/kg in test [2] (setting [3]).
For `Fc1ccc(Cn2c(NC3CCN(CCNc4ncccn4)CC3)nc3ccccc32)cc1` [Compound 1, 1-[(4-fluorophenyl)methyl]-N-[1-[2-[(2-pyrimidinyl)amino]ethyl]-4-piperidinyl]-1H-benzimidazol-2-amine] the same measures were 0.16 mg/kg and 0.63 mg/kg.
As to `Fc1ccc(Cn2c(NC3CCN(CCCCNc4ncccn4)CC3)nc3ccccc32)cc1` [Compound 2], the ED50 in test [1] is 0.16 mg/kg; in test [2] (setting [3]), 2.5 mg/kg.
Consider `Fc1ccc(Cn2c(NC3CCN(CCCNc4ncccn4)CC3)nc3ccccc32)cc1` [Compound 4], for which, in test [1], the ED50 came to 0.16 mg/kg.
`Fc1ccc(Cn2c(NC3CCN(CCNc4cc(Cl)ncn4)CC3)nc3ccccc32)cc1` [Compound 5]: the ED50 in test [1] came out at 0.31 mg/kg.
With `Fc1ccc(Cn2c(NC3CCN(C4CCN(c5ncccn5)CC4)CC3)nc3ccccc32)cc1` [Compound 6], the ED50 in test [1] is 1.25 mg/kg.
On to `CC(CN1CCC(Nc2nc3ccccc3n2Cc2ccc(F)cc2)CC1)Nc1ncccn1` (stereo not shown) [Compound 7], for which the ED50 in test [1] and in test [2] (setting [3]) was 0.63 mg/kg in each case.
Consider `Fc1ccc(Cn2c(NC3CCN(CCN(Cc4ccccc4)c4ncccn4)CC3)nc3ccccc32)cc1` [Compound 8], for which the ED50 in test [1] and in test [2] (setting [3]) was 0.63 mg/kg each time.
In the case of `CN(CCN1CCC(Nc2nc3ccccc3n2Cc2ccc(F)cc2)CC1)c1ncccn1` [Compound 10], the ED50 was determined as 0.08 mg/kg in test [1] and 0.63 mg/kg in test [2] (setting [3]).
Consider `O=[N+]([O-])c1cccnc1N1CCC(N2CCC(Nc3nc4ccccc4n3Cc3ccc(F)cc3)CC2)CC1` [Compound 11], for which, in test [1], the ED50 was found to be 0.63 mg/kg.
For `Fc1ccc(Cn2c(NC3CCN(C4CCCN(c5ncccn5)C4)CC3)nc3ccccc32)cc1` (stereo not shown) [Compound 12], the ED50 is 1.25 mg/kg in test [1] and 2.5 mg/kg in test [2] (setting [3]).
Taken in the same sequence, the figures for `O=[N+]([O-])c1ccc(NCCN2CCC(Nc3nc4ccccc4n3Cc3ccc(F)cc3)CC2)nc1` [Compound 13] were 0.31 mg/kg and 2.5 mg/kg.
For `O=[N+]([O-])c1cc[n+]([O-])cc1NCCN1CCC(Nc2nc3ccccc3n2Cc2ccc(F)cc2)CC1` [Compound 14] the same measures were 0.04 mg/kg and 1.25 mg/kg.
For the compound `c1ccc(Cn2c(NC3CCN(CCNc4ncccn4)CC3)nc3ccccc32)nc1` [Compound 15], the ED50 is 0.04 mg/kg in test [1] and 0.63 mg/kg in test [2] (setting [3]).
On to `c1cnc(NCCN2CCC(Nc3nc4ccccc4n3Cc3cccnc3)CC2)nc1` [Compound 17], for which the ED50 in test [1] was 1.25 mg/kg.
For the compound `c1cnc(NCCN2CCC(Nc3nc4ccccc4n3Cc3cnccn3)CC2)nc1` [Compound 18], the ED50 in test [1] was 0.01 mg/kg; in test [2] (setting [3]) it was 0.63 mg/kg.
Taken in the same sequence, the figures for `c1cnc(NCCN2CCC(Nc3nc4ccccc4n3Cc3cccs3)CC2)nc1` [Compound 19] were 0.02 mg/kg and 2.5 mg/kg.
As to `c1cnc(NCCN2CCC(Nc3nc4ccccc4n3Cc3ccoc3)CC2)nc1` [Compound 20], the ED50 in test [1] was 0.04 mg/kg; in test [2] (setting [3]), 0.63 mg/kg.
Taken in the same sequence, the figures for `Cc1ccc(Cn2c(NC3CCN(CCNc4ncccn4)CC3)nc3ccccc32)o1` [Compound 21] were 0.04 mg/kg and 0.63 mg/kg.
With `Fc1ccc(Cn2c(NC3CCN(CCCCCNc4ncccn4)CC3)nc3ccccc32)cc1` [Compound 22], the ED50 was 0.31 mg/kg in test [1] and 0.08 mg/kg in test [2] (Rattus norvegicus, po, read-out: gastric lesion test ED50).
With `Fc1ccc(Cn2c(NC3CCN(CCNc4ncccn4)CC3)nc3cnccc32)cc1` [Compound 26, 1[(4-fluorophenyl)methyl]-N-[1-[2-(2-pyrimidinylamino]ethyl]-4-piperidinyl]1H-imidazo[4,5-c]pyridin-2-amine], the ED50 in test [1] amounted to 0.08 mg/kg.
As for `Fc1ccc(Cn2c(NC3CCN(CCNc4ncccn4)CC3)nc3ccncc32)cc1.O=C(O)/C=C/C(=O)O.O=C(O)/C=C/C(=O)O` [Compound 29, 3-[(4-fluorophenyl)methyl]-N-[1-[2-[(2-pyrimidinyl)amino]ethyl]-4-piperidinyl]-3H-imidazo[4,5-c]pyridin-2-amine (E)-2-butenedioate (1:2)], in test [1], the ED50 was found to be 0.16 mg/kg.
Still for that read-out and setting: to `Cc1cc(NCCN2CCC(Nc3nc4ccccc4n3Cc3ccc(F)cc3)CC2)nc(N)n1` [Compound 35] belongs 0.31 mg/kg; to `Cc1nc2ccccc2nc1NCCN1CCC(Nc2nc3ccccc3n2Cc2ccc(F)cc2)CC1` [Compound 41], 1.25 mg/kg; to `Fc1ccc(Cn2c(NC3CCN(CCNc4ccc5ccccc5n4)CC3)nc3ccccc32)cc1` [Compound 44], 0.31 mg/kg.
Take `Cc1cc(Cl)nc(NCCN2CCC(Nc3nc4ccccc4n3Cc3ccc(F)cc3)CC2)n1` [Compound 62, N-[1-[2-[(4-chloro-6-methyl-2-pyrimidinyl)amino]ethyl]-4-piperidinyl]-1-[(4-fluorophenyl)methyl]-1H-benzimidazol-2-amine]: in test [1], the ED50 stood at 0.63 mg/kg.
Still for that read-out and setting: for `Brc1ccc(OCCN2CCC(Nc3nc4ccccc4n3Cc3ccco3)CC2)nc1` [Compound 78, N-[1-[2-[(5-bromo-2-pyridinyl)oxy]ethyl]-4-piperidinyl]-1-(2-furanylmethyl)-1H-benzimidazol-2-amine] the value was 0.31 mg/kg; for `Cc1nc2ccccc2nc1OCCN1CCC(Nc2nc3ccccc3n2Cc2ccc(F)cc2)CC1` [Compound 80, 1-[(4-fluorophenyl)methyl]-N-[1-[2-[(3-methyl-2-quinoxalinyl)oxy]ethyl]-4-piperidinyl]-1H-benzimidazol-2-amine], 2.5 mg/kg.
The same measure, in the same setting: for `Fc1ccc(Cn2c(NC3CCN(CCOc4ccc(Br)cn4)CC3)nc3ccccc32)cc1` [Compound 82, N-[1-[2-[(5-bromo-2-pyridinyl)oxy]ethyl]-4-piperidinyl]-1-[(4-fluorophenyl)methyl]-1H-benzimidazol-2-amine] the value was 0.16 mg/kg.
The same measure, in the same setting: to `O=c1cc(Cc2ccccc2)[nH]c(NCCN2CCC(Nc3nc4ccccc4n3Cc3ccc(F)cc3)CC2)n1` [Compound 89, 2-[[2-[4-[[1-[(4-fluorophenyl)methyl]-1H-benzimidazol-2-yl]amino]-1-piperidinyl]ethyl]amino]-6-(phenylmethyl)-4-(1H)-pyrimidinone] belongs 0.63 mg/kg.
For the compound `COc1cc(NCCN2CCC(Nc3nc4ccccc4n3Cc3ccc(F)cc3)CC2)ncn1` [Compound 98, 1-[(4-fluorophenyl)methyl]-N-[1-[2-[(6-methoxy-4-pyrimidinyl)amino]ethyl]-4-piperidinyl]-1H-benzimidazol-2-amine], the ED50 in test [1] amounted to 0.16 mg/kg.
Regarding `Fc1ccc(Cn2c(NC3CCN(CCc4cnccn4)CC3)nc3ccccc32)cc1` [Compound 101, 1-(4-fluorophenylmethyl)-N-[1-[2-(2-pyrazinyl)ethyl]-4-piperidinyl]-1H-benzimidazol-2-amine], the ED50 in test [1] came out at 0.31 mg/kg.
In the case of `O=C(NCCN1CCC(Nc2nc3ccccc3n2Cc2ccc(F)cc2)CC1)c1cccnc1Cl` [Compound 115, 2-chloro-N-[2-[4-[[1-[(4-fluorophenyl)methyl]-1H-benzimidazol-2-yl]amino]-1-piperidinyl]ethyl]-3-pyridinecarboxamide (E)-2-butenedioate (1:2) hemihydrate], the ED50 in test [1] was found to be 0.16 mg/kg.
For the compound `N#CCN1CCC(Nc2nc3cnccc3n2Cc2ccc(F)cc2)CC1` [Intermediate 81], the ED50 in test [1] was found to be 0.63 mg/kg.
Still for that read-out and setting: to `NCCN1CCC(Nc2nc3cnccc3n2Cc2ccc(F)cc2)CC1` [Intermediate 111] belongs 0.16 mg/kg.
